ChEMBL document CHEMBL1212896, “Discovery of novel cyanodihydropyridines as potent mineralocorticoid receptor antagonists” (J Med Chem, 2010)
The source made the active and inactive calls. The calls are words filed in the database; no cut-off is given here.

Key:
Glucocorticoid receptor = target: T1, Glucocorticoid receptor (Homo sapiens, UniProt P04150); experiment: Antagonist activity at glucocorticoid receptor LBD expressed in human HUH7 cells coexpressing GAL4 by luciferase reporter gene assay; type: functional, cell-based, Huh-7
T1 sequence (P04150 whole entry): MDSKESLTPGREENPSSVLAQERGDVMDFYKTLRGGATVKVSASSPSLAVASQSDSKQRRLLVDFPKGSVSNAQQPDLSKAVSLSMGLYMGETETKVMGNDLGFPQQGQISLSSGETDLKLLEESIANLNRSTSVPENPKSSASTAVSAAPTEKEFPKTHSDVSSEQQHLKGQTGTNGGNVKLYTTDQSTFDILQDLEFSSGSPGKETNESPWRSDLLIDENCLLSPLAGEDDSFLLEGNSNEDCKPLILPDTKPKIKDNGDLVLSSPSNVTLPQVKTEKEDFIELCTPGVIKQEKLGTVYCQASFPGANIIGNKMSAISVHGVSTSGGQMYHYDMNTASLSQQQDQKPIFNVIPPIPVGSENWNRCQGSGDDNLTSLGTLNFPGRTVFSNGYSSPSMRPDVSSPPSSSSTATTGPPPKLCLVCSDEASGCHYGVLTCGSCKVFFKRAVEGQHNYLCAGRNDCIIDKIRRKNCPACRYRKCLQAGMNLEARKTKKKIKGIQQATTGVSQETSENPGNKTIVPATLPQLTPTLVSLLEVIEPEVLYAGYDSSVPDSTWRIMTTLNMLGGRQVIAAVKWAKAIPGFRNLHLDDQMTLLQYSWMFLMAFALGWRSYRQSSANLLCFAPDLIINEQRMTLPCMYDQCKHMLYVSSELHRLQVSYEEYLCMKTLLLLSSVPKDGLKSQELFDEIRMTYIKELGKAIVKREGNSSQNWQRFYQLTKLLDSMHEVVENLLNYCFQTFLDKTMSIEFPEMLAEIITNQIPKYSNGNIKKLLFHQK

Rattus norvegicus [1] = experiment: Antihypertensive activity in Dahl salt-sensitive rat model assessed as decrease of systolic blood pressure at 60 mg/kg, po bid for 21 days; type: functional, organism-based; set-up: dose 60 mg/kg; details: Artery
Rattus norvegicus [2] = experiment: Protection of renal injury in Dahl salt-sensitive rat model assessed as reduction of urinal albumin excretion at 60 mg/kg, po bid for 21 days; type: functional, organism-based; set-up: dose 60 mg/kg
[3] = Half life in Sprague-Dawley rat at 5 mg/kg, iv; type: ADME, organism-based; set-up: dose 5 mg/kg, route intravenous; details: in vivo
[4] = Clearance in Sprague-Dawley rat at 5 mg/kg, iv; type: ADME, organism-based; set-up: dose 5 mg/kg, route intravenous; details: in vivo
[5] = Volume of distribution at steady state in Sprague-Dawley rat at 5 mg/kg, iv; type: ADME, organism-based; set-up: dose 5 mg/kg, route intravenous; details: in vivo, read-out: Vdss

Row | SMILES | IC50 (Glucocorticoid receptor) [nM] | also measured
1 | COC(=O)C1=C(C)NC(C)=C(C#N)C1c1ccc(F)cc1Cl (stereo not given) | 5100 | –
2 | COC(=O)C1=C(Cn2cncn2)NC(C)=C(C#N)C1c1ccc(F)cc1Cl (stereo not given) | 2900 | –

Stronger by IC50 (Glucocorticoid receptor), values ahead:

Row | IC50 (Glucocorticoid receptor) [nM] | SMILES | also measured
3 | 2200 | COC(=O)C1=C(Cn2ccnc2)NC(C)=C(C#N)C1c1ccc(F)cc1Cl (stereo not given) | –
4 | 1600 | CCCC1=C(C(=O)OC)C(c2ccccc2Cl)C(C#N)=C(C)N1 (stereo not given) | –
5 | 1300 | COC(=O)C1=C(Cn2cnnn2)NC(C)=C(C#N)C1c1ccc(F)cc1Cl (stereo not given) | Activity (Rattus norvegicus [1]): Active; Activity (Rattus norvegicus [2]): Active; half-life [3]: 4.84 h; clearance [4]: 14.1 mL/min/kg; Vd [5]: 0.9 L/kg
